This is an account of results in US7078065B2, “Composition containing asiasari radix extracts for protecting brain cells and improving memory” (priority 2001, dated 2006).

In data set [1] the test system is AMPA-induced depolarization in rat cortical slices. The experiment in a line: Grease-gap recording assay: AMPA-induced depolarization in rat cortical wedges. The settings on record: AMPA 40 uM for 2 min. As to the method:
Cortical wedges from rats were prepared, placed in two-compartment brain bath and experiments were performed as described by Harrison and Simmonds (British J. Pharmacol. 84, 381–391, 1985). ‘Wedges’ of rat cerebral cortex were prepared from the brains of male Wistar rats (200 g). The animal is decapitated and the brain rapidly removed into chilled oxygenated (95% O2/5% CO2) artificial cerebrospinal fluid (ACSF) containing (mM): NaCl 122, NaHCO3 25, KCl 3.1, KH2PO4 0.4, CaCl2 1.3, MgSO4 1.4, D-glucose 10, (pH 7.4). […] coronal slices were taken and they were then placed in room temperature oxygenated ACSF and hemisected with a razor blade. A wedge of tissue was formed such that the dorsal cortical surface containing cerebral cortex and corpus callosum was approximately 1.5 mm wide and ventral surface was approximately 1 mm wide. The wedges were further incubated in ACSF for 2 hrs at room temperature.
Cortical wedges were placed in a two-compartment bath and a greased (high vacuum silicon grease) barrier placed such that a high-resistance seal was formed between the two compartments. Oxygenated ACSF was perfused through the two compartments separately at 2 ml/min for at least 1 hr. […] The DC potential between the two compartments was monitored via Ag/AgCl electrodes. The signal was amplified and analyzed with the aid of McLab software.

Data set [2] relates to differentiated PC12 cells. The experiment in a line: Cell viability (MTT) assay, AMPA-induced damage in differentiated PC12 cells. The format is cell-based. The following applies: AMPA 40 uM. As to the method:
(§1) MTT assay is a method to measure mitochondrial redox with calorimeter and it is primarily used to know mitochondrial redox potential or cell viability (Mosmann T., J Immunol. Methods, 1983). PC 12 cells and C6 glial cells were grown in DMEM media with 10% fetal calf serum in 5% humidified CO2 atmosphere at 37° C. PC12 cells were induced to differentiation into neuronal cells by the addition of nerve growth factor (100 ng/ml). Fresh NGF was added every 48 h and experiments were conducted after NGF treatment for 7 days.
(§2) The cells were plated in 96 well plates at a density of 1×10^5 cells/well. Cells were preincubated with AMPA (40 μM) and followed by the addition of AR fractions (10 μg/ml) for 24 hrs. MTT reagent (Sigma, USA) (5 mg/ml) was made in PBS (phosphate buffered saline) and filtered. The cells were then treated with MTT (final concentration, 0.5 mg/ml) and allowed to incubate for 3 hrs at 37° C. Cells containing active mitochondria form dark blue formazan by disintegrating tetrazolium ring. The culture media were removed and the cells were subjected to lysis in the presence of […] of DMSO and […] of Sorensen glycine buffer (0.1M glycine, 0.1M NaCl, pH 10.5). The absorbance was measured with spectrophotometer at 570 nm. The ratio of absorbance of experimental groups to control groups is expressed as % cell viability.

The test system of a further data set is C6 glial cells. The data set is described as follows: Cell viability (MTT) assay, AMPA-induced damage in C6 glial cells. The format is cell-based. As to the method: as §1, §2

Regarding `Cc1o[nH]c(=O)c1CC(N)C(=O)O` (stereo not drawn) [AMPA], in data set [1], the increase in depolarization result is recorded as “up to 0.79 mV”. For the same compound, the “reduction in cell viability as compared to control” value in data set [2] is listed as “approximately 50%”; in the data set on C6 glial cells, “approximately 35%”.
